Assay results as given in the supplement of paper PMC10307832.

Key:
Assay in all cases: relative viability (nuclei count vs DMSO), 5 days (fraction); higher = more cells survive
[1] = compound: COc1cc2nc(N3CCCN(C)CC3)nc(NC3CCN(Cc4ccccc4)CC3)c2cc1OC + CC(=O)Nc1cccc(-n2c(=O)n(C3CC3)c(=O)c3c(Nc4ccc(I)cc4F)n(C)c(=O)c(C)c32)c1 [Trametinib] (partner 0.02 µM)
Method in brief: (§1)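 Relative viability was taken as the ratio of nuclei in treated wells to nuclei in vehicle wells. Lung cancer cell lines in 1536-well plates received compounds by pin tool one day after seeding, either one drug alone or a fixed anchor-drug dose plus five library-drug doses (not always all listed) in √10 steps. Nuclei were counted on 4× images after 5 days of treatment, and values are medians of duplicate plates.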

[2] = compound: COc1cc2nc(N3CCCN(C)CC3)nc(NC3CCN(Cc4ccccc4)CC3)c2cc1OC + N=C(N)NC(=N)NCCc1ccccc1 [Phenformin] (partner 250 µM)
Method in brief: as §1

AZD6482 + Bortezomib = compound: Cc1cc([C@@H](C)Nc2ccccc2C(=O)O)c2nc(N3CCOCC3)cc(=O)n2c1 [AZD6482] + CC(C)C[C@H](NC(=O)[C@H](Cc1ccccc1)NC(=O)c1cnccn1)B(O)O [Bortezomib] (partner 0.002 µM)
Method in brief: as §1

AZD6482 + Vorinostat = compound: Cc1cc([C@@H](C)Nc2ccccc2C(=O)O)c2nc(N3CCOCC3)cc(=O)n2c1 [AZD6482] + O=C(CCCCCCC(=O)Nc1ccccc1)NO [Vorinostat] (partner 1 µM)
Method in brief: as §1

Cell Line	relative viability ([1]; first compound 0.2 µM)	relative viability ([1]; first compound 0.6325 µM)	relative viability ([1]; first compound 2 µM)	relative viability ([1]; first compound 6.325 µM)	relative viability ([2]; first compound 0.2 µM)	relative viability ([2]; first compound 0.6325 µM)	relative viability ([2]; first compound 2 µM)	relative viability ([2]; first compound 6.325 µM)	relative viability (AZD6482 + Bortezomib; first compound 0.08 µM)	relative viability (AZD6482 + Bortezomib; first compound 0.253 µM)	relative viability (AZD6482 + Bortezomib; first compound 0.8 µM)	relative viability (AZD6482 + Bortezomib; first compound 2.53 µM)	relative viability (AZD6482 + Bortezomib; first compound 8 µM)	relative viability (AZD6482 + Vorinostat; first compound 0.08 µM)	relative viability (AZD6482 + Vorinostat; first compound 0.253 µM)	relative viability (AZD6482 + Vorinostat; first compound 0.8 µM)	relative viability (AZD6482 + Vorinostat; first compound 2.53 µM)	relative viability (AZD6482 + Vorinostat; first compound 8 µM)
NCI-H1915	0.309	0.295	0.309	0.277	0.371	0.351	0.374	0.364	0.861	0.86	1.04	0.849	1.05	0.432	0.467	0.538	0.4	0.462
NCI-H1975	0.369	0.41	0.346	0.322	0.414	0.431	0.411	0.389	0.345	0.375	0.384	0.323	0.301	0.638	0.655	0.743	0.535	0.482
NCI-H1993	0.497	0.485	0.414	0.589	0.528	0.442	0.528	0.501	0.848	0.94	–	–	0.852	0.742	0.73	0.569	0.376	0.47
NCI-H2009	0.277	0.305	0.323	0.289	0.471	0.447	0.56	0.385	0.985	1.04	1.04	0.601	0.783	0.583	0.775	0.665	0.501	0.573
NCI-H2023	0.598	0.577	0.501	0.116	0.424	0.414	0.498	0.272	0.984	0.742	0.874	0.623	0.679	0.642	0.435	0.509	0.37	0.455
NCI-H2085	0.504	0.504	0.612	0.525	0.776	0.743	0.786	0.641	0.824	0.659	0.766	0.393	0.458	0.557	0.402	0.517	0.398	0.341
NCI-H2087	0.244	0.215	0.144	0.206	0.413	0.439	0.48	0.393	0.904	0.912	0.831	0.661	1.04	0.465	0.81	0.98	0.183	0.92
NCI-H2126	0.532	0.572	0.513	0.508	0.493	0.601	0.538	0.472	1.12	1.09	1.1	0.851	0.786	0.728	0.703	0.577	0.389	0.432
NCI-H2228	0.561	0.565	0.403	0.395	0.271	0.298	0.224	0.141	0.754	0.986	0.91	0.849	1.13	0.482	0.302	0.798	0.555	0.904
NCI-H2347	0.275	0.299	0.271	0.377	0.399	0.447	0.555	0.408	0.755	0.681	0.873	0.619	0.496	0.386	0.516	0.522	0.399	0.353
NCI-H2405	0.652	0.604	0.676	0.591	0.425	0.444	0.421	0.371	0.77	0.895	1.06	0.73	0.661	0.762	0.9	1.03	0.644	0.501
NCI-H3122	0.239	0.199	0.197	0.208	0.403	0.363	0.401	0.331	0.87	0.989	1.1	0.803	1.09	1.01	1.1	0.829	0.84	0.796
PC-3 [JPC-3]	0.641	0.761	0.745	0.507	0.484	0.499	0.488	0.521	0.658	0.844	0.843	0.761	0.713	0.766	0.797	0.84	0.457	0.571
PC-14	0.707	0.648	0.806	0.0693	0.584	0.703	0.527	0.265	0.785	0.917	0.913	0.67	1.02	0.667	0.716	0.712	0.487	0.769
RERF-LC-KJ	0.829	0.862	0.928	0.803	0.442	0.433	0.397	0.418	0.825	0.907	0.895	0.921	0.865	0.648	0.616	0.557	0.648	0.514
SK-LU-1	0.554	0.541	0.516	0.459	0.537	0.517	0.616	0.462	0.776	0.642	1.16	0.589	0.46	–	0.767	0.812	0.591	0.517
SW 1573	0.446	0.518	0.572	0.368	0.373	0.424	0.369	0.163	0.92	0.86	0.877	0.613	0.633	0.766	0.681	0.654	0.58	0.48
